The text below walks through data of patent US7696354B2, “Cephem compounds having broad antibacterial spectrum” (Shionogi & Co., Ltd., priority 2002, dated 2010).

Holding throughout (assay type): cell-based
For assay [1], the system named is S. aureus SR3637 (H-MRSA). As to the kind of experiment: MIC by agar dilution method, S. aureus SR3637 (H-MRSA). The settings on record: Methicillin High-Resistant Staphylococcus Aureus; for MIC: MRSA, read-out: MIC (minimum inhibitory concentration) S. aureus SR3637 (H-MRSA). The protocol: (§1) The MIC (minimum inhibitory concentration) value of the invention compounds against various bacterial was determined by the usual agar dilution method.

Assay [2] relates to E. cloacae SR4321 (Bla++). As to the kind of experiment: MIC by agar dilution method, E. cloacae SR4321 (Bla++). Particulars: AmpC High-Production Cephem Resistant Strain; for MIC: Enterobacter cloacae, read-out: MIC (minimum inhibitory concentration) E. cloacae SR4321 (Bla++). How it is done: as §1
For assay [3], the system named is P. aeruginosa SR24-12. As to the kind of experiment: MIC by agar dilution method, P. aeruginosa SR24-12. Particulars: for MIC: Pseudomonas aeruginosa, SR2412, AmpC High-Production Cephem Resistant Strain, read-out: MIC (minimum inhibitory concentration) P. aeruginosa SR24-12. How it is done: as §1
Assay [4] deals with S. epidermidis SR25009 (MRSE). The assay is described as follows: MIC by agar dilution method, S. epidermidis SR25009 (MRSE). The settings on record: Methicillin High-Resistant Staphylococcus Epidermidis; for MIC: MRSE, read-out: MIC (minimum inhibitory concentration) S. epidermidis SR25009 (MRSE). How it is done: as §1

Values after ≈ are worked out from the molar mass of the structure shown. A value given as a limit tells only on which side of the number the result lay.

On to `CC(C)(O/N=C(\C(=O)NC1C(=O)N2C(C(=O)[O-])=C(C[n+]3ccccc3)CSC12)c1nc(N)sc1Cl)C(=O)O` (stereo not drawn) [Ex. 3], for which the MIC in assay [1] was 32 µg/mL (≈ 55.1 µM); in assay [2], 16 µg/mL (≈ 27.5 µM); in assay [3], 8 µg/mL (≈ 13.8 µM); in assay [4] it was 32 µg/mL (≈ 55.1 µM).
For `CNCCCn1ccc2c1ccc[n+]2CC1=C(C(=O)[O-])N2C(=O)C(NC(=O)/C(=N\O[C@H](C)C(=O)O)c3nc(N)sc3Cl)C2SC1` (stereo partly drawn) [Ex. 8], the MIC in assay [1] came to 32 µg/mL (≈ 47.3 µM); in assay [2], 4 µg/mL (≈ 5.91 µM); in assay [3] it was 4 µg/mL (≈ 5.91 µM); in assay [4] it was 32 µg/mL (≈ 47.3 µM).
Regarding `C=C(O/N=C(\C(=O)NC1C(=O)N2C(C(=O)[O-])=C(C[n+]3cccc4c3ccn4CCCNC)CSC12)c1nc(N)sc1Cl)C(=O)O` (stereo not drawn) [Ex. 19], the MIC in assay [1] came to 16 µg/mL (≈ 23.7 µM); in assay [2] it was 1 µg/mL (≈ 1.48 µM); in assay [3], 8 µg/mL (≈ 11.8 µM); in assay [4], 8 µg/mL (≈ 11.8 µM).
Take `CNCCCn1ccc2c1ccc[n+]2CC1=C(C(=O)[O-])N2C(=O)C(NC(=O)/C(=N\OC(C)(C)C(=O)O)c3nc(N)sc3Br)C2SC1` (stereo not drawn) [Ex. 20]: the MIC in assay [1] worked out at 16 µg/mL (≈ 21.7 µM); in assay [2], 8 µg/mL (≈ 10.9 µM); in assay [3], 4 µg/mL (≈ 5.44 µM); in assay [4] it was 16 µg/mL (≈ 21.7 µM).
As for `CNCCCn1c(N)nc2c1ccc[n+]2CC1=C(C(=O)[O-])N2C(=O)[C@@H](NC(=O)/C(=N\O[C@@H](C)C(=O)O)c3nc(N)sc3Cl)C2SC1` (stereo partly drawn) [Ex. 79], the MIC in assay [1] came to 8 µg/mL (≈ 11.5 µM); in assay [2] it was 2 µg/mL (≈ 2.89 µM); in assay [3] it was 4 µg/mL (≈ 5.77 µM); in assay [4] it was 8 µg/mL (≈ 11.5 µM).
With `C[C@H](N)Cn1c(N)nc2c1ccc[n+]2CC1=C(C(=O)[O-])N2C(=O)C(NC(=O)/C(=N\O[C@@H](C)C(=O)O)c3nc(N)sc3Cl)C2SC1` (stereo partly drawn) [Ex. 98], the MIC in assay [1] amounted to 8 µg/mL (≈ 11.8 µM); in assay [2], 2 µg/mL (≈ 2.94 µM); in assay [3], 2 µg/mL (≈ 2.94 µM); in assay [4] it was 8 µg/mL (≈ 11.8 µM).
For the compound `CNCCNc1cc[n+](CC2=C(C(=O)[O-])N3C(=O)[C@@H](NC(=O)/C(=N\O[C@@H](C)C(=O)O)c4nc(N)sc4Cl)[C@H]3SC2)cc1` [Ex. 124], the MIC was found to be 16 µg/mL (≈ 25 µM) in assay [1], 4 µg/mL (≈ 6.26 µM) in assay [2], 4 µg/mL (≈ 6.26 µM) in assay [3] and 8 µg/mL (≈ 12.5 µM) in assay [4].
In the case of `C[C@H](O/N=C(\C(=O)N[C@@H]1C(=O)N2C(C(=O)[O-])=C(C[n+]3ccc(NC4CCNC4)cc3)CS[C@H]12)c1nc(N)sc1Cl)C(=O)O` (stereo partly drawn) [Ex. 132], the MIC in assay [1] was found to be 16 µg/mL (≈ 24.6 µM); in assay [2], 4 µg/mL (≈ 6.14 µM); in assay [3] it was 4 µg/mL (≈ 6.14 µM); in assay [4], 8 µg/mL (≈ 12.3 µM).
Turning to `CC(C)(O/N=C(\C(=O)N[C@@H]1C(=O)N2C(C(=O)[O-])=C(C[n+]3ccccc3)CS[C@H]12)c1csc(N)n1)C(=O)O` [Ref. 1, Ceftazidime, reference compound], in assay [1], the “MIC (minimum inhibitory concentration) S. aureus SR3637 (H-MRSA)” value was more than 128 µg/mL. For the same compound, the “MIC (minimum inhibitory concentration) E. cloacae SR4321 (Bla++)” value in assay [2] was 64 µg/mL (≈ 117 µM). Besides, the “MIC (minimum inhibitory concentration) P. aeruginosa SR24-12” value in assay [3] (AmpC High-Production Cephem Resistant Strain) is 64 µg/mL (≈ 117 µM). In assay [4], the “MIC (minimum inhibitory concentration) S. epidermidis SR25009 (MRSE)” value was more than 128 µg/mL.
